# Experimental data taken from US6956059B2, “Anti-inflammatory and immunomodulatory amino acid derivatives, their preparation and use” (Croda International, plc, priority 2001, dated 2005).
# Test system: blood-brain barrier
# Assay: transport across the blood-brain barrier (methodology of Dehouck et al); cytotoxicity observation
# Format: cell-based
# Conditions: used at the concentration of 5 μm/l; blood-brain barrier transport experiments
# Experimental: In accordance with the methodology described by Dehouck et al in J Cont Rel 81-91 (1992), experiments were performed to study the transport of the compound of Example 2 across the blood-brain barrier.
smiles,measurement,value
"CCCCCCCC/C=C\CCCCCCCCCCCCCC(=O)NCCCC[C@H](NC(=O)CCCCCCCCCCCCC/C=C\CCCCCCCC)C(=O)OCC [Example 2, Nα,Nε-di-(z-15-tetracosenoyl)-L-lysine ethyl ester]",cytotoxicity,not cytotoxic
